Data set [1] concerns primary human hepatocyte transduced with HPV E6 and E7 genes.
Data set [2] has as its system differentiated hepatocytes. The following applies: human, 48 h.
Data set [3] deals with differentiated hepatocytes. The experiment in a line: Intrahepatic cholestasis: bile secretion by CDFDA staining. It is filed as cell-based, human. The following applies: 24 hours of exposure, compared to melatonin.
Data set [4] concerns differentiated hepatocytes. The experiment in a line: Apoptosis quantification by TUNEL.
The subject of data set [5] is CYP3A4/5, 2E1, 2B6 and 1A1. The experiment in a line: Cytochrome P450 inhibition in differentiated hepatocytes. It counts as in vitro ADME, human. As to conditions: after 30 min of incubation, 200 µM naringenin.
Data set [6] deals with CYP450. As to conditions: human, hepatocytes, 72 h, 200 µM.
In data set [7] the test system is CYP1A1. The experiment in a line: Cytochrome P450 induction in differentiated hepatocytes (CYP1A1). It counts as in vitro ADME, human. The following applies: 50 µM omeprazole, normalized to vehicle-only controls.

Where two headings read alike, the source gives them in different places.

Take `N#CC(=C(/N)Sc1ccccc1N)/C(C#N)=C(\N)Sc1ccccc1N` [U0126]: in data set [1], the “epithelial phenotype of the cells” value is reported as “stable E-Cadherin positive epithelial phenotype”.
On to `CC(=O)Oc1ccccc1C(=O)O` [acetylsalicylic acid], for which, in data set [2], the “increase in intracellular lipids compared to control” value was 33-47%.
For `CN(C)CCCN1c2ccccc2Sc2ccc(Cl)cc21` [chlorpromazine], the “bile secretion (measure of intrahepatic cholestasis)” value in data set [3] is reported as “loss of bile secretion function”.
With `COc1ccc2[nH]cc(CCNC(C)=O)c2c1` [melatonin], the “Percent apoptosis (positive nuclei)” value in data set [4] (differentiated hepatocytes exposed for 24 hours to TC20 values, TUNEL) was 4%.
Consider `O=C1C[C@@H](c2ccc(O)cc2)Oc2cc(O)cc(O)c21` [naringenin], for which, in data set [5], the “inhibition of CYP3A4/5, 2E1, 2B6 and 1A1” value was “drastically inhibited”. The “increase in CYP450 activity compared with vehicle-treated cells” value in data set [6] is recorded as 5-7 fold.
On to `COc1ccc2[nH]c([S+]([O-])Cc3ncc(C)c(OC)c3C)nc2c1` (stereo not drawn) [omeprazole], for which the “CYP1A1 increased by stimulation” value in data set [7] was found to be 10 folds.
For `Cc1c(C)c2c(c(C)c1O)CCC(C)(COc1ccc(CC3SC(=O)NC3=O)cc1)O2` (stereo not drawn) [troglitazone], the “bile secretion (measure of intrahepatic cholestasis)” value in data set [3] is listed as “loss of bile secretion function”.
Regarding aflatoxin B1, in data set [4], the “Percent apoptosis (positive nuclei)” value is given as 23%.

The record behind these values is EP2927685A1, “Suitable hepatocytes for in-vitro hepatitis tests” (Medicyte GmbH, priority 2014, dated 2015).
